In US20230399341A1, “7-PHENYL SUBSTITUTED 2-AMINOQUINAZOLINE INHIBITORS OF HPK1” (MERCK SHARP & DOHME LLC, priority 2020, published 2023) one finds IC50 data, which are given here for 25 compounds.

SMILES strings stand for the structures.

The target in this assay is T1, Human HPK1, catalytic domain (Homo sapiens, UniProt Q92918).
T1 sequence (Q92918 1-346): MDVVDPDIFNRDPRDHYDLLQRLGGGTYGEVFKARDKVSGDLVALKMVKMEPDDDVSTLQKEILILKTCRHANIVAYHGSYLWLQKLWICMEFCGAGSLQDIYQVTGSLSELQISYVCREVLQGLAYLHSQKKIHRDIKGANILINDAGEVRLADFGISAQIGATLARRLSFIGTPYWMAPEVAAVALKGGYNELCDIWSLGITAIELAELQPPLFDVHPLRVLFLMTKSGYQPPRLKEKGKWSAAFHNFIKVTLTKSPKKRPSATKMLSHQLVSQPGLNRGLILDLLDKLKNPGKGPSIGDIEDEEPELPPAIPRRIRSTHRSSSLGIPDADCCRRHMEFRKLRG
Put plainly: HPK1-SLP76 TR-FRET Assay. Type of assay: biochemical. The settings on record: 75 pM HPK1, ATP 10 uM, SLP76 10 nM, 30 min pre-incubation, 60 min reaction. In general terms: TR-FRET usually uses a lanthanide donor and a delayed reading to cut background.
Regarding `CNC(=O)c1ccc(Nc2ncc3c(N)c(F)c(-c4cnc5c(c4C)NCCO5)c(Cl)c3n2)c(OC)c1` [Compound 2-97, (+ or −)-4-{[5-amino-8-chloro-6-fluoro-7-(8-methyl-2,3-dihydro-1H-pyrido[2,3-b][1,4]oxazin-7-yl)quinazolin-2-yl]amino}-3-methoxy-N-methylbenzamide], the IC50 is 0.679 nM.
For the compound `CNC(=O)c1ccc(Nc2ncc3c(N)c(F)c(-c4c(Cl)nc5c(c4C)NCCO5)c(Cl)c3n2)c(OC)c1` [Compound 2-98, (+ or −)-4-{[5-amino-8-chloro-7-(6-chloro-8-methyl-2,3-dihydro-1H-pyrido[2,3-b][1,4]oxazin-7-yl)-6-fluoroquinazolin-2-yl]amino}-3-methoxy-N-methylbenzamide], the IC50 stood at 6.73 nM.
`Cc1c(-c2c(F)c(N)c3cnc(Nc4ccc5c(c4)CN(C)CC54CC4)nc3c2Cl)cnc2c1NCCO2` [Compound 2-100, (+ or −)-8-chloro-6-fluoro-7-(8-methyl-2,3-dihydro-1H-pyrido[2,3-b][1,4]oxazin-7-yl)-N~2~- (2′-methyl-2′,3′-dihydro-1′H-spiro[cyclopropane-1,4′-isoquinolin]-7′-yl)quinazoline-2,5-diamine] registered an IC50 of 1.19 nM.
Then `COc1cc2c(cc1Nc1ncc3c(N)c(F)c(-c4cnc5c(c4C)NCCO5)c(Cl)c3n1)CN(C(C)C)CC2` [Compound 2-102, (+ or −)-8-chloro-6-fluoro-N~2~-[6-methoxy-2-(propan-2-yl)-1,2,3,4-tetrahydroisoquinolin-7-yl]-7-(8-methyl-2,3-dihydro-1H-pyrido[2,3-b][1,4]oxazin-7-yl)quinazoline-2,5-diamine], with 0.204 nM; and `Cc1c(-c2c(F)c(N)c3cnc(Nc4ccc(S(C)(=O)=O)cc4)nc3c2Cl)cnc2c1NCCO2` [Compound 2-103, (+ or −)-8-chloro-6-fluoro-7-(8-methyl-2,3-dihydro-1H-pyrido[2,3-b][1,4]oxazin-7-yl)-N~2~- [4-(methylsulfonyl)phenyl] quinazoline-2,5-diamine], with 0.0946 nM.
Consider `COc1cc2c(cc1Nc1ncc3c(N)c(F)c(-c4cnc5c(c4C)NCCO5)c(Cl)c3n1)CN(C)CC2(C)C` [Compound 2-104, 8-chloro-6-fluoro-N2-(6-methoxy-2,4,4-trimethyl-1,2,3,4-tetrahydroisoquinolin-7-yl)-7-(8-methyl-2,3-dihydro-1H-pyrido[2,3-b][1,4]oxazin-7-yl)quinazoline-2,5-diamine], for which the IC50 is 0.795 nM.
Next, `COc1cc2c(cc1Nc1ncc3c(N)c(F)c(-c4cnc5c(c4C)NCCO5)c(Cl)c3n1)CN(C(C)C)CC2` [Compound 2-106, (+ or −)-8-chloro-6-fluoro-N2-(2-isopropyl-6-methoxy-1,2,3,4-tetrahydroisoquinolin-7-yl)-7-(8-methyl-2,3-dihydro-1H-pyrido[2,3-b][1,4]oxazin-7-yl)quinazoline-2,5-diamine]: 5.76 nM; `Cc1c(-c2c(F)c(N)c3cnc(Nc4cc5c(cc4F)CCN(C)C5)nc3c2Cl)cnc2c1NCCO2` [Compound 2-107, (+ or −)-8-chloro-6-fluoro-N2-(6-fluoro-2-methyl-1,2,3,4-tetrahydroisoquinolin-7-yl)-7-(8-methyl-2,3-dihydro-1H-pyrido[2,3-b][1,4]oxazin-7-yl)quinazoline-2,5-diamine]: 0.0862 nM; `Cc1c(-c2c(F)c(N)c3cnc(Nc4ccc5c(c4)CN(C)CC54CC4)nc3c2C#N)cnc2c1NCCO2` [Compound 2-109, (+ or −)-5-amino-6-fluoro-2-((2′-methyl-2′,3′-dihydro-1′H-spiro[cyclopropane-1,4′-isoquinolin]-7′-yl)amino)-7-(8-methyl-2,3-dihydro-1H-pyrido[2,3-b][1,4]oxazin-7-yl)quinazoline-8-carbonitrile]: 0.0528 nM.
With `Cc1c(-c2c(F)c(N)c3cnc(Nc4ccc5c(c4)CN(C)CC54CC4)nc3c2C)cnc2c1NCCO2` [Compound 2-110, (+ or −)-6-fluoro-8-methyl-N2-(2′-methyl-2′,3′-dihydro-1′H-spiro[cyclopropane-1,4′-isoquinolin]-7′-yl)-7-(8-methyl-2,3-dihydro-1H-pyrido[2,3-b][1,4]oxazin-7-yl)quinazoline-2,5-diamine], the half-maximal inhibitory concentration (IC50) was determined as 0.0706 nM.
Regarding `Cc1c(-c2c(F)c(N)c3cnc(Nc4ccc5c(c4)CN(C)CC54CC4)nc3c2Br)cnc2c1NCCO2` [Compound 2-111, (+ or −)-8-bromo-6-fluoro-7-(8-methyl-2,3-dihydro-1H-pyrido[2,3-b][1,4]oxazin-7-yl)-N~2~- (2′-methyl-2′,3′-dihydro-1′H-spiro[cyclopropane-1,4′-isoquinolin]-7′-yl)quinazoline-2,5-diamine], the midpoint of inhibition, the IC50, lay at 0.0199 nM.
On to `Cc1c(-c2c(F)c(N)c3cnc(Nc4ccc5c(c4)CN(C(C)C)CC5)nc3c2Cl)cnc2c1NCCO2` [Compound 2-112, 8-chloro-6-fluoro-N2-(2-isopropyl-1,2,3,4-tetrahydroisoquinolin-7-yl)-7-(8-methyl-2,3-dihydro-1H-pyrido[2,3-b][1,4]oxazin-7-yl)quinazoline-2,5-diamine], for which the midpoint of inhibition, the IC50, lay at 0.816 nM.
In turn, `Cc1c(-c2cc3nc(Nc4ccc(CS(C)(=O)=O)c(F)c4)ncc3c(N)c2F)cnc2c1NCCO2` [Compound 2-114, 6-fluoro-N~2~-{3-fluoro-4-[(methanesulfonyl)methyl]phenyl}-7-(8-methyl-2,3-dihydro-1H-pyrido[2,3-b][1,4]oxazin-7-yl)quinazoline-2,5-diamine] registered a 50% inhibitory concentration (IC50) of 0.0654 nM.
Then `Cc1c(-c2cc3nc(Nc4ccc(CS(=O)(=O)N5CCCC5)cc4)ncc3c(N)c2F)cnc2c1NCCO2` [Compound 2-115, 6-fluoro-7-(8-methyl-2,3-dihydro-1H-pyrido[2,3-b][1,4]oxazin-7-yl)-N~2~- {4-[(pyrrolidine-1-sulfonyl)methyl]phenyl} quinazoline-2,5-diamine], with 0.12 nM.
As for `Cc1c(-c2cc3nc(Nc4ccc(CCC#N)cc4)ncc3c(N)c2F)cnc2c1NCCO2` [Compound 2-116, 3-(4-{[5-amino-6-fluoro-7-(8-methyl-2,3-dihydro-1H-pyrido[2,3-b][1,4]oxazin-7-yl)quinazolin-2-yl]amino}phenyl)propane-nitrile], the midpoint of inhibition, the IC50, lay at 0.142 nM.
Next, `Cc1c(-c2cc3nc(Nc4ccc5c(c4)CN(C)CCC5)ncc3c(N)c2F)cnc2c1NCCO2` [Compound 2-117, 6-fluoro-7-(8-methyl-2,3-dihydro-1H-pyrido[2,3-b][1,4]oxazin-7-yl)-N~2~- (2-methyl-2,3,4,5-tetrahydro-1H-2-benzazepin-8-yl)quinazoline-2,5-diamine]: 0.0406 nM; `Cc1c(-c2cc3nc(Nc4ccc5c(c4)COCC5)ncc3c(N)c2F)cnc2c1NCCO2` [Compound 2-118, N~2~-(3,4-dihydro-1H-2-benzopyran-7-yl)-6-fluoro-7-(8-methyl-2,3-dihydro-1H-pyrido[2,3-b][1,4]oxazin-7-yl)quinazoline-2,5-diamine]: 0.0607 nM; `Cc1c(-c2cc3nc(Nc4ccc5c(c4)CCN(C)CC5)ncc3c(N)c2F)cnc2c1NCCO2` [Compound 2-119, 6-fluoro-7-(8-methyl-2,3-dihydro-1H-pyrido[2,3-b][1,4]oxazin-7-yl)-N~2~- (3-methyl-2,3,4,5-tetrahydro-1H-3-benzazepin-7-yl)quinazoline-2,5-diamine]: 0.038 nM.
`Cc1c(-c2cc3nc(Nc4ccc5c(c4)CNCCC5)ncc3c(N)c2F)cnc2c1NCCO2` [Compound 2-120, 6-fluoro-7-(8-methyl-2,3-dihydro-1H-pyrido[2,3-b][1,4]oxazin-7-yl)-N~2~- (2,3,4,5-tetrahydro-1H-2-benzazepin-8-yl)quinazoline-2,5-diamine] had an IC50 of 0.0066 nM.
Compound `Cc1c(-c2cc3nc(Nc4ccc5c(c4)C4CCC5N4C)ncc3c(N)c2F)cnc2c1NCCO2` (stereo not shown) [Compound 2-121, 6-fluoro-7-(8-methyl-2,3-dihydro-1H-pyrido[2,3-b][1,4]oxazin-7-yl)-N~2~- (9-methyl-1,2,3,4-tetrahydro-1,4-epiminonaphthalen-6-yl)quinazoline-2,5-diamine] yielded a 50% inhibitory concentration (IC50) of 0.0248 nM.
`Cc1ccncc1-c1cc2nc(Nc3ccc4c(c3)CN(C)CC4)ncc2c(N)c1F` [Compound 2-122, 6-fluoro-7-(4-methylpyridin-3-yl)-N~2~- (2-methyl-1,2,3,4-tetrahydroisoquinolin-7-yl)quinazoline-2,5-diamine]: the IC50 is 0.22 nM.
Next, `CS(=O)(=O)Cc1ccc(Nc2ncc3c(N)c(F)c(-c4cnc5c(c4Cl)NCCO5)cc3n2)cc1` [Compound 2-123, 7-(8-chloro-2,3-dihydro-1H-pyrido[2,3-b][1,4]oxazin-7-yl)-6-fluoro-N2-(4-((methylsulfonyl)methyl)phenyl)quinazoline-2,5-diamine]: 0.037 nM; `CN1CCc2ccc(Nc3ncc4c(N)c(F)c(-c5cnc6c(c5Cl)NCCO6)cc4n3)cc2C1` [Compound 2-124, 7-(8-chloro-2,3-dihydro-1H-pyrido[2,3-b][1,4]oxazin-7-yl)-6-fluoro-N~2~-(2-methyl-1,2,3,4-tetrahydroisoquinolin-7-yl)quinazoline-2,5-diamine]: 0.0474 nM.
`Cc1c(-c2cc3nc(Nc4ccc5c(c4)CN(C)CC5)ncc3c(N)c2F)cnc2cc[nH]c12` [Compound 2-130, 6-fluoro-7-(7-methyl-1H-pyrrolo[3,2-b]pyridin-6-yl)-N~2~-(2-methyl-1,2,3,4-tetrahydroisoquinolin-7-yl)quinazoline-2,5-diamine] yielded an IC50 of 0.103 nM.
`Cc1c(-c2c(F)c(N)c3cnc(Nc4ccc(CS(=O)(=O)C5CC5)cc4)nc3c2Cl)cnc2c1NCCO2` [Compound 2-132, 8-chloro-N2-(4-((cyclopropylsulfonyl)methyl)phenyl)-6-fluoro-7-(8-methyl-2,3-dihydro-1H-pyrido[2,3-b][1,4]oxazin-7-yl)quinazoline-2,5-diamine] yielded a half-inhibitory concentration (IC50) of 2.78 nM.

Broadly, the IC50 is the concentration that inhibits the measured activity by half. A higher IC50 goes with a need for much substance.
